What follows are compounds tested against T1, human BRD4 bromodomain II (Homo sapiens, UniProt O60885) (assay: Bromodomain binding assay (AlphaScreen), BRD4 BDII). Conditions: AlphaScreen assay, Table C2; read-out: BRD4 BDII IC50.
T1 construct: human BRD4 bromodomain II [based on Genbank NM_058243, residues 349-460]; host or cells: E. coli
How it was run: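 AlphaScreen competition with biotinylated H4 peptide (aa 1-21, K5/K8/K12/K16Ac), using nickel-chelate acceptor and streptavidin donor beads. Targets were His6-BRD4 BDI (44-170) or BDII (349-460), with a 30 min compound preincubation over a 10-point 3-fold series. IC50 was fitted from percentage peptide binding.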

Row | SMILES | IC50 [nM]
1 | CC(=O)Nc1ccc(-c2cccc(-c3cccc(C4CCNCC4)c3)c2O)cc1F [Example 210, N-(3-fluoro-2′-hydroxy-3″-(piperidin-4-yl)-[1,1′:3′,1″-terphenyl]-4-yl)acetamide] | 1 to 10
2 | CC(=O)Nc1ccc(-c2cccc(-c3ccc4c(c3)ncn4C)c2O)cc1F [Example 121, N-(3-Fluoro-2′-hydroxy-3′-(1-methyl-1H-benzo[d]imidazol-5-yl)-[1,1′-biphenyl]-4-yl)acetamide] | > 100
3 | CC(=O)Nc1ccc(-c2cccc(-c3cccc(N4CCNC[C@@H]4C)c3)c2O)cc1F [Example 168, (S)-N-(3-fluoro-2′-hydroxy-3″-(2-methylpiperazin-1-yl)-[1,1′:3′,1″-terphenyl]-4-yl)acetamide] | 10 to 100
4 | CC(=O)Nc1ccc(-c2cccc(-c3cccc(N4CCC(N)C4)c3)c2O)cc1F (stereo not shown) [Example 177, N-(3″-(3-aminopyrrolidin-1-yl)-3-fluoro-2′-hydroxy-[1,1′:3′,1″-terphenyl]-4-yl)acetamide] | 10 to 100
5 | CC(=O)Nc1ccc(-c2cccc(-c3cc(N4CCNCC4)no3)c2O)cc1OC1CC1 [Example 44, N-(3-Cyclopropoxy-2′-hydroxy-3′-(3-(piperazin-1-yl)isoxazol-5-yl)-[1,1′-biphenyl]-4-yl)acetamide 2,2,2-trifluoroacetate] | 10 to 100
6 | COc1cc(-c2cccc(-c3cc(N4CCNCC4)no3)c2O)ccc1NC(C)=O [Example 23, N-(2′-Hydroxy-3-methoxy-3′-(3-(piperazin-1-yl)isoxazol-5-yl)-[1,1′-biphenyl]-4-yl)acetamide 2,2,2-trifluoroacetate] | > 100
7 | CC(=O)Nc1ccc(-c2cccc(-c3cc(N4CCN(C5COC5)CC4)no3)c2O)cc1F [Example 153, N-(3-fluoro-2′-hydroxy-3′-(3-(4-(oxetan-3-yl)piperazin-1-yl)isoxazol-5-yl)-[1,1′-biphenyl]-4-yl)acetamide] | 10 to 100
8 | COc1cc(-c2cccc(-c3ccc(NC(C)=O)c(F)c3)c2O)ccc1NC(C)=O [Example 42, N,N′-(3-Fluoro-2′-hydroxy-3″-methoxy-[1,1′:3′,1″-terphenyl]-4,4″-diyl)diacetamide] | 10 to 100
9 | COc1ccc(F)c(-c2cccc(-c3ccc(NC(C)=O)c(F)c3)c2O)c1 [Example 158, N-(2″,3-difluoro-2′-hydroxy-5″-methoxy-[1,1′:3′,1″-terphenyl]-4-yl)acetamide] | > 100
10 | O=C1OCCN1c1ccc(-c2cccc(-c3cc(N4CCNCC4)no3)c2O)cc1 [Example 37, 3-(2′-Hydroxy-3′-(3-(piperazin-1-yl)isoxazol-5-yl)-[1,1′-biphenyl]-4-yl)oxazolidin-2-one 2,2,2-trifluoroacetate] | > 100
11 | CC(=O)Nc1ccc(-c2cccc(-c3cc(N4CCNCC4)[nH]n3)c2O)cc1F [Example 162, N-(3-fluoro-2′-hydroxy-3′-(5-(piperazin-1-yl)-1H-pyrazol-3-yl)-[1,1′-biphenyl]-4-yl)acetamide ditrifluoroacetate] | > 100
12 | CC(=O)Nc1ccc(-c2cccc(-c3ccnc(C(=O)O)c3)c2O)cc1F [Example 205, 4-(4′-acetamido-3′-fluoro-2-hydroxy-[1,1′-biphenyl]-3-yl)picolinic acid] | 1 to 10
13 | CC(=O)Nc1ccc(-c2cccc(-c3cnn(C)c3)c2O)cc1 [Example 13, N-(2′-Hydroxy-3′-(1-methyl-1H-pyrazol-4-yl)-[1,1′-biphenyl]-4-yl)acetamide] | > 100
14 | CC(=O)Nc1ccc(-c2cccc(-c3cc(N4CCN(C(=O)c5ccccc5)CC4)no3)c2O)cc1 [Example 105, N-(3′-(3-(4-Benzoylpiperazin-1-yl)isoxazol-5-yl)-2′-hydroxy-[1,1′-biphenyl]-4-yl)acetamide] | > 100
15 | O=C1CCCN1c1ccc(-c2cccc(-c3ccncc3)c2O)cc1Cl [Example 213, 1-(3-Chloro-2′-hydroxy-3′-(pyridin-4-yl)-[1,1′-biphenyl]-4-yl)pyrrolidin-2-one 2,2,2-trifluoroacetate] | 10 to 100
16 | CC(=O)Nc1ccc(-c2cccc(-c3ccc4c(c3)CCN4)c2O)cc1F [Example 137, N-(3-fluoro-2′-hydroxy-3′-(indolin-5-yl)-[1,1′-biphenyl]-4-yl)acetamide] | > 100
17 | O=C1NCCN1c1ccc(-c2cccc(-c3cccc(N4CCNCC4)c3)c2O)cc1F [Example 197, 1-(3-fluoro-2′-hydroxy-3″-(piperazin-1-yl)-[1,1′:3′,1″-terphenyl]-4-yl)imidazolidin-2-one] | 1 to 10
18 | CC(=O)Nc1ccc(-c2cccc(-c3cc(N4CCN(C(C)=O)CC4)no3)c2O)cc1 [Example 57, N-(3′-(3-(4-Acetylpiperazin-1-yl)isoxazol-5-yl)-2′-hydroxy-[1,1′-biphenyl]-4-yl)acetamide] | > 100
19 | CC(=O)Nc1ccc(-c2cccc(-c3cccc(-c4ccc(N)nc4)c3)c2O)cc1F [Example 202, N-(3″-(6-aminopyridin-3-yl)-3-fluoro-2′-hydroxy-[1,1′:3′,1″-terphenyl]-4-yl)acetamide] | > 100

Row | SMILES | IC50 [nM]
20 | CC(=O)Nc1ccc(-c2cccc(-c3ccc(NC(C)=O)c(N4CCNCC4)c3)c2O)cc1N1CCNCC1 [Example 185, N,N′-(2′-hydroxy-3,3″-di(piperazin-1-yl)-[1,1′:3′,1″-terphenyl]-4,4″-diyl)diacetamide] | > 100
21 | CC(=O)Nc1ccc(-c2cccc(-c3csc(N4CCNCC4)n3)c2O)cc1F [Example 212, N-(3-Fluoro-2′-hydroxy-3′-(2-(piperazin-1-yl)thiazol-4-yl)-[1,1′-biphenyl]-4-yl)acetamide] | > 100
22 | CC(=O)Nc1c(F)cc(-c2cccc(-c3cc(N4CCNCC4)no3)c2O)cc1F [Example 86, N-(3,5-Difluoro-2′-hydroxy-3′-(3-(piperazin-1-yl)isoxazol-5-yl)-[1,1′-biphenyl]-4-yl)acetamide 2,2,2-trifluoroacetate] | 10 to 100
23 | CC(=O)Nc1ccc(-c2cccc(-c3ccnc(N4CC(N)C4)c3)c2O)cc1F [Example 232, N-(3′-(2-(3-aminoazetidin-1-yl)pyridin-4-yl)-3-fluoro-2′-hydroxy-[1,1′-biphenyl]-4-yl)acetamide] | 10 to 100
24 | CCOc1cccc(-c2cccc(-c3ccc(NC(C)=O)c(F)c3)c2O)c1 [Example 72, N-(3″-Ethoxy-3-fluoro-2′-hydroxy-[1,1′:3′,1″-terphenyl]-4-yl)acetamide] | > 100
25 | CCN1CCN(c2cc(-c3cccc(-c4ccc(NC(C)=O)c(F)c4)c3O)on2)CC1 [Example 151, N-(3′-(3-(4-ethylpiperazin-1-yl)isoxazol-5-yl)-3-fluoro-2′-hydroxy-[1,1′-biphenyl]-4-yl)acetamide] | 10 to 100
26 | CNC(=O)Nc1ccc(-c2cccc(-c3cc(N4CCNCC4)no3)c2O)cc1 [Example 149, 1-(2′-hydroxy-3′-(3-(piperazin-1-yl)isoxazol-5-yl)-[1,1′-biphenyl]-4-yl)-3-methylurea] | > 100
27 | CC(=O)Nc1ccc(-c2cccc(-c3ccc(NC(C)=O)c(F)c3)c2O)cc1F [Example 33, N,N′-(3,3″-Difluoro-2′-hydroxy-[1,1′:3′,1″-terphenyl]-4,4″-diyl)diacetamide] | > 100
28 | CC(=O)Nc1ccc(-c2cc(F)cc(-c3ccc(F)c(C4=CCNCC4)c3)c2O)cc1F [Example 247, N-(3,4″,5′-trifluoro-2′-hydroxy-3″-(1,2,3,6-tetrahydropyridin-4-yl)-[1,1′:3′,1″-terphenyl]-4-yl)acetamide] | 1 to 10
29 | CC(=O)Nc1ccc(-c2cccc(-c3cccc(N4CCN[C@@H](C)C4)c3)c2O)cc1F [Example 179, (S)-N-(3-fluoro-2′-hydroxy-3″-(3-methylpiperazin-1-yl)-[1,1′:3′,1″-terphenyl]-4-yl)acetamide] | 10 to 100
30 | COc1cc(-c2cccc(-c3cc(F)c(NC(C)=O)c(F)c3)c2O)ccc1NC(C)=O [Example 128, N,N′-(3,5-Difluoro-2′-hydroxy-3″-methoxy-[1,1′:3′,1″-terphenyl]-4,4″-diyl)diacetamide] | 10 to 100
31 | CC(=O)Nc1ccc(-c2cccc(-c3cccc(C(C)C)c3)c2O)cc1F [Example 75, N-(3-Fluoro-2′-hydroxy-3″-isopropyl-[1,1′:3′,1″-terphenyl]-4-yl)acetamide] | > 100
32 | O=C1CCCN1c1c(Cl)cc(-c2cccc(-c3cc(N4CCNCC4)no3)c2O)cc1Cl [Example 172, 1-(3,5-dichloro-2′-hydroxy-3′-(3-(piperazin-1-yl)isoxazol-5-yl)-[1,1′-biphenyl]-4-yl)pyrrolidin-2-one] | > 100
33 | COc1cc(-c2cccc(-c3cc(Cl)c(NC(C)=O)c(Cl)c3)c2O)ccc1NC(C)=O [Example 132, N,N′-(3,5-Dichloro-2′-hydroxy-3″-methoxy-[1,1′:3′,1″-terphenyl]-4,4″-diyl)diacetamide] | 10 to 100
34 | CC(=O)Nc1ccc(-c2cccc(-c3cc(N4CCNCC4)cc(C(F)(F)F)c3)c2O)cc1F [Example 215, N-(3-fluoro-2′-hydroxy-3″-(piperazin-1-yl)-5″-(trifluoromethyl)-[1,1′:3′,1″-terphenyl]-4-yl)acetamide] | 1 to 10
35 | CC(=O)Nc1ccc(-c2cccc(-c3ccc(Cl)c(N4CCNCC4)c3)c2O)cc1F [Example 241, N-(4″-chloro-3-fluoro-2′-hydroxy-3″-(piperazin-1-yl)-[1,1′:3′,1″-terphenyl]-4-yl)acetamide] | 1 to 10
36 | CC(=O)Nc1ccc(-c2cccc(-c3ccc(N4CCNCC4)cc3)c2O)cc1F [Example 108, N-(3-Fluoro-2′-hydroxy-4″-(piperazin-1-yl)-[1,1′:3′,1″-terphenyl]-4-yl)acetamide] | > 100
37 | CC(=O)Nc1ccc(-c2cccc(-c3ccnc(N4CC(O)C4)c3)c2O)cc1F [Example 225, N-(3-fluoro-2′-hydroxy-3′-(2-(3-hydroxyazetidin-1-yl)pyridin-4-yl)-[1,1′-biphenyl]-4-yl)acetamide] | > 100
